What was measured:
[1] = tested on: conscious normotensive dogs; assay: Myocardial contractility in conscious normotensive dogs; type: in vivo, dog (mongrel); settings: single oral 20 mg/kg; for Myocardial contractility / % Δ of myocardial contractility: Table V
Procedure: (§1) As for the experiments with conscious normotensive dogs, mongrel dogs with incannulated abdominal aorta or with incannulated abdominal aorta and cardiac left ventricle were used. The compounds were administered by oral route as powder in gelatine capsules. Mean blood pressure (M.B.P.) was registered directly using a Bentley pressure transducer.
Myocardial contractility was calculated as
1/P·dp/dt ^(max)
The results of this experiment, which was conducted after a single oral administration of 20 mg/kg of the test compound, are summarized below: […]

renal hypertensive dogs [2] = assay: Heart rate in renal hypertensive dogs; type: in vivo, dog (mongrel); settings: experiments of Table III, oral
Procedure: (§2) More particularly, in the experiments with conscious renal hypertensive dogs, mongrel dogs with two clips on the renal arteries were used according to the Goldblatt's method. The compounds were administered by oral route as powder in gelatine capsules. Systolic blood pressure (SBP) was registered at the tail (indirect method).

mongrel dogs [3] = assay: CNS-depressant activity in mongrel dogs (oral); settings: 100 mg/kg
mice = assay: "running-fit" test (antagonism of the effects of morphine); type: in vivo, mouse; settings: morphine 60 mg/Kg s.c.
Procedure: This test is conducted essentially as described in the literature.

[4] = tested on: conscious normotensive dogs; assay: Blood pressure in conscious normotensive dogs (oral); type: in vivo, dog (mongrel); settings: for % systolic blood pressure variation: Table II, oral; for Mean systolic blood pressure / % Δ of mean systolic blood pressure: Table V, single oral 20 mg/kg
Procedure: as §1

renal hypertensive dogs [5] = assay: CNS depressant effect and tachycardia during prolonged (7-day) treatment in dogs; type: in vivo, dog; settings: per os 10 mg/kg/die, 7 days
Beagle dogs = settings: dog, in vivo, po
mongrel dogs [6] = settings: dog, in vivo
renal hypertensive dogs [7] = assay: Tachiphylaxis experiment: daily oral administration for 7 consecutive days, systolic blood pressure; type: in vivo, dog; settings: for % Δ of S.B.P., peak effect (7h) / S.B.P., basal value / S.B.P., peak effect (7h) / % Δ of S.B.P., basal value: Table IV, 10 mg/kg/die per os
[8] = tested on: conscious renal hypertensive dogs; assay: Systolic blood pressure in conscious renal hypertensive dogs (oral, Goldblatt's method); type: in vivo, dog (mongrel); settings: for % systolic pressure variation: Table I; for % Δ (% variation of the S.B.P. over the basal value) / S.B.P. (systolic blood pressure): Table III; for S.B.P. (systolic blood pressure): mean ± SE
Procedure: The experiments herein described which use renal hypertensive dogs are conducted essentially as described in the above cited text.
as §2
^a S.B.P. = Systolic blood pressure. It is determined after oral
administration where three animals were employed for each dose. It is
expressed in mmHg as mean value ± SE.
^b % Δ = % variation of the S.B.P. over the basal value (time
0) at the indicated time after administration.

[9] = Acute toxicity (LD50) in mice; settings: mouse, in vivo
Procedure: The LD50 values of the compounds of the invention are generally higher than 500 mg/kg when given per os and generally higher than 200-300 mg/kg when given intraperitoneally to mice. In particular, the approximate LD50 values for compound 3 in mice were 1000 mg/kg after oral administration and 600 mg/kg after i.p. administration. […] Representative experiments were conducted essentially as described by B. N. Ames, J. McCann., E. Yamasaki, "Methods for detecting carcinogens and mutagens with the salmonella/microsome mutagenicy test" in Mutation Research, 31, 347-364, (1975).

[10] = renal hypertensive dogs, oral, 20 mg/kg

CC(C)n1c(CCN2CCN(c3cccc(C(F)(F)F)c3)CC2)nc2ccc3ccccc3c21.O=C(O)CC(O)(CC(=O)O)C(=O)O [Compound 3, 2-[2-[4-(3-trifluoromethylphenyl)-1-piperazinyl]ethyl]-1-(1-methylethyl)-1H-naphth[1,2-d]imidazole, 2-hydroxy-1,2,3-propantricarboxylate]
Myocardial contractility ([1]; 0 min (basal)): 48 mmHg sec^-1 | % Δ of myocardial contractility ([1]; 60 min): +10% | Myocardial contractility ([1]; 60 min): 53 mmHg sec^-1 | % Δ of myocardial contractility ([1]; 120 min): +12% | Myocardial contractility ([1]; 120 min): 54 mmHg sec^-1 | % Δ of myocardial contractility ([1]; 180 min): +10% | Myocardial contractility ([1]; 180 min): 53 mmHg sec^-1 | % Δ of myocardial contractility ([1]; 300 min): +12% | Myocardial contractility ([1]; 300 min): 54 mmHg sec^-1 | % Δ of myocardial contractility ([1]; 360 min): +6% | Myocardial contractility ([1]; 360 min): 51 mmHg sec^-1 | effect on myocardial contractility (in words) ([1]; conscious normotensive dogs): proved not to reduce the myocardial contractility | heart rate (renal hypertensive dogs [2]): no increase in the heart rate was observed but only a slight and transient decrease | signs of CNS-depression (mongrel dogs [3]): slight sedation and very slight motor incoordination | antagonism of morphine in "running-fit" test (mice; 30 mg i.p.): inactive | antagonism of morphine in "running-fit" test (mice; 60 mg per os): inactive | % systolic blood pressure variation ([4]; 10 mg/kg): -16% | % systolic blood pressure variation ([4]; 20 mg/kg): -15% | Mean systolic blood pressure ([4]; 0 min (basal)): 120 mmHg | % Δ of mean systolic blood pressure ([4]; 60 min): -0% | Mean systolic blood pressure ([4]; 60 min): 120 mmHg | % Δ of mean systolic blood pressure ([4]; 120 min): -12% | Mean systolic blood pressure ([4]; 120 min): 106 mmHg | % Δ of mean systolic blood pressure ([4]; 180 min): -15% | Mean systolic blood pressure ([4]; 180 min): 102 mmHg | % Δ of mean systolic blood pressure ([4]; 300 min): -17% | Mean systolic blood pressure ([4]; 300 min): 100 mmHg | % Δ of mean systolic blood pressure ([4]; 360 min): -12% | Mean systolic blood pressure ([4]; 360 min): 106 mmHg | CNS depressant effect during the prolonged treatment (renal hypertensive dogs [5]): no tachycardia or CNS depressant effect was observed | tachycardia during the prolonged treatment (renal hypertensive dogs [5]): no tachycardia | dose at which CNS-depressant effects begin (Beagle dogs): higher than 100 mg/kg | dose beginning CNS-depressant activity relative to effective antihypertensive dose (mongrel dogs [6]): at least about ten times higher | dose at which signs of CNS-depression begin (mongrel dogs [6]; po): 100 mg/kg | % Δ of S.B.P., peak effect (7h) (renal hypertensive dogs [7]; day 1 of treatment): -20% | S.B.P., basal value (renal hypertensive dogs [7]; day 1 of treatment): 210 mmHg | S.B.P., peak effect (7h) (renal hypertensive dogs [7]; day 1 of treatment): 170 mmHg | % Δ of S.B.P., basal value (renal hypertensive dogs [7]; day 3 of treatment): -5% | % Δ of S.B.P., peak effect (7h) (renal hypertensive dogs [7]; day 3 of treatment): -20% | S.B.P., basal value (renal hypertensive dogs [7]; day 3 of treatment): 200 mmHg | S.B.P., peak effect (7h) (renal hypertensive dogs [7]; day 3 of treatment): 170 mmHg | % Δ of S.B.P., basal value (renal hypertensive dogs [7]; day 5 of treatment): -12% | % Δ of S.B.P., peak effect (7h) (renal hypertensive dogs [7]; day 5 of treatment): -24% | S.B.P., basal value (renal hypertensive dogs [7]; day 5 of treatment): 185 mmHg | S.B.P., peak effect (7h) (renal hypertensive dogs [7]; day 5 of treatment): 160 mmHg | % Δ of S.B.P., basal value (renal hypertensive dogs [7]; day 7 of treatment): -15% | % Δ of S.B.P., peak effect (7h) (renal hypertensive dogs [7]; day 7 of treatment): -29% | S.B.P., basal value (renal hypertensive dogs [7]; day 7 of treatment): 180 mmHg | S.B.P., peak effect (7h) (renal hypertensive dogs [7]; day 7 of treatment): 150 mmHg | tachiphylaxis (renal hypertensive dogs [7]; per os daily for 7 consecutive days, 10 mg/kg/die): proved not to induce tachiphylaxis | minimal effective dose ([8]; Canis lupus familiaris, po, read-out: dose active in reducing the systolic blood pressure): ≤ 5 mg/kg | % systolic pressure variation [8, 10]: -24% | % systolic pressure variation ([8]; renal hypertensive dogs, oral, 30 mg/kg): -20% | % Δ (% variation of the S.B.P. over the basal value) ([8]; oral 5 mg/kg, 1 h): -3% | S.B.P. (systolic blood pressure) ([8]; oral 5 mg/kg, 1 h): 205 ± 5 mmHg | % Δ (% variation of the S.B.P. over the basal value) ([8]; oral 5 mg/kg, 3 h): -10% | S.B.P. (systolic blood pressure) ([8]; oral 5 mg/kg, 3 h): 190 ± 5 mmHg | % Δ (% variation of the S.B.P. over the basal value) ([8]; oral 5 mg/kg, 5 h): -12% | S.B.P. (systolic blood pressure) ([8]; oral 5 mg/kg, 5 h): 185 ± 7 mmHg | % Δ (% variation of the S.B.P. over the basal value) ([8]; oral 5 mg/kg, 7 h): -10% | S.B.P. (systolic blood pressure) ([8]; oral 5 mg/kg, 7 h): 190 ± 4 mmHg | S.B.P. (systolic blood pressure) ([8]; oral 5 mg/kg, time 0 h (basal value), 3 animals): 210 ± 7 mmHg | % Δ (% variation of the S.B.P. over the basal value) ([8]; oral 10 mg/kg, 1 h): -8% | S.B.P. (systolic blood pressure) ([8]; oral 10 mg/kg, 1 h): 190 ± 4 mmHg | % Δ (% variation of the S.B.P. over the basal value) ([8]; oral 10 mg/kg, 3 h): -13% | S.B.P. (systolic blood pressure) ([8]; oral 10 mg/kg, 3 h): 180 ± 7 mmHg | % Δ (% variation of the S.B.P. over the basal value) ([8]; oral 10 mg/kg, 5 h): -22% | S.B.P. (systolic blood pressure) ([8]; oral 10 mg/kg, 5 h): 160 ± 10 mmHg | % Δ (% variation of the S.B.P. over the basal value) ([8]; oral 10 mg/kg, 7 h): -18% | S.B.P. (systolic blood pressure) ([8]; oral 10 mg/kg, 7 h): 170 ± 8 mmHg | S.B.P. (systolic blood pressure) ([8]; oral 10 mg/kg, time 0 h (basal value)): 205 ± 7 mmHg | % Δ (% variation of the S.B.P. over the basal value) ([8]; oral 20 mg/kg, 1 h): -8% | S.B.P. (systolic blood pressure) ([8]; oral 20 mg/kg, 1 h): 175 ± 7 mmHg | % Δ (% variation of the S.B.P. over the basal value) ([8]; oral 20 mg/kg, 3 h): -14% | S.B.P. (systolic blood pressure) ([8]; oral 20 mg/kg, 3 h): 165 ± 8 mmHg | % Δ (% variation of the S.B.P. over the basal value) ([8]; oral 20 mg/kg, 5 h): -27% | S.B.P. (systolic blood pressure) ([8]; oral 20 mg/kg, 5 h): 140 ± 7 mmHg | % Δ (% variation of the S.B.P. over the basal value) ([8]; oral 20 mg/kg, 7 h): -32% | S.B.P. (systolic blood pressure) ([8]; oral 20 mg/kg, 7 h): 130 ± 7 mmHg | S.B.P. (systolic blood pressure) ([8]; oral 20 mg/kg, time 0 h (basal value)): 190 ± 8 mmHg | duration of the reduction of the blood pressure ([8]; renal hypertensive dogs, oral): still present seven hours after administration | LD50 ([9]; ip, intraperitoneal): ~600 mg/kg | LD50 ([9]; po, per os): ~1000 mg/kg

Cn1c(CCN2CCN(c3ccccc3)CC2)nc2ccc3ccccc3c21 [Compound 2, 2-[2-(4-phenyl-1-piperazinyl)ethyl]-1-methyl-1H-naphth-[1,2-d]imidazole]
% systolic blood pressure variation ([4]; 10 mg/kg): -30% | % systolic pressure variation ([8]; renal hypertensive dogs, oral, 10 mg/kg): -32%

Cn1c(CCN2CCN(c3cccc(C(F)(F)F)c3)CC2)nc2ccc3ccccc3c21 [Compound 6, 2-[2-[4-(3-trifluoromethylphenyl)-1-piperazinyl]ethyl]-1-methyl-1H-naphth[1,2-d]imidazole]
% systolic pressure variation [8, 10]: -39%

CC(C)n1c(CCN2CCN(c3ccccc3)CC2)nc2ccc3ccccc3c21 [Compound 1, 2-[2-(4-phenyl-1-piperazinyl)ethyl]-1-(1-methylethyl)-1H-naphth[1,2-d]imidazole]
% systolic blood pressure variation ([4]; 1 mg/kg): -17% | % systolic blood pressure variation ([4]; 5 mg/kg): -37%

Reference: US4594348A, “Use of some 2-[2-[4-phenyl-1-piperazinyl]ethyl]-1H-naphth-[1,2-D]imidazole derivatives and their pharmaceutically acceptable salts in the treatment of cardiovascular diseases” (Gruppo Lepetit S.p.A., priority 1984, dated 1986)
